Data from patent US20210369684A1 (MOUNT TAM THERAPEUTICS, INC., priority 2018, published 2021).
Values joined by “and” are separate entries in the source; they are usually repeats but may differ in a detail not shown here. Identical values can stand only once.

Tests used:
Type in all cases: in vivo, mouse
[1] = Whole blood concentrations after IP administration to mice (LC-MS/MS)
Experimental: Shown below are whole blood concentrations following administration of the compound of Formula II to mice. The compound of Formula II was administered to mice at 2 mg/kg or 10 mg/kg for three days and the concentration of the compound in whole blood determined. These determinations were made using protein precipitation, liquid chromatography (LC), and mass spectrometry (MS/MS). Ten μl aliquots of whole blood and matrix calibration standards were distributed in a 96-well plate; 10 μl aliquots of blank matrix for matrix blanks and control blanks were included as controls. Ten μl of water was added to each sample followed by vortexing. One hundred sixty […] of internal standard was added to each sample except the matrix blanks; 160 μl 70:30 water:acetonitrile (ACN) was added to matrix blanks. This was followed by a […]. One hundred fifty μl of the resultant supernatant was then transferred to a new 96-well plate and the samples blown to dryness at 35° C. The resultant product was then reconstituted with 90 μl ACN.

6-OHDA injected mice [2] = experiment: Anti-TH immunohistochemistry, 6-OHDA-induced neuronal loss (TH-positive somas in SN)
Experimental: Immunohistochemistry analysis using anti-tyrosine hydroxylase (TH) antibody was also performed to quantify 6-OHDA-induced neuronal loss in mice injected with 6-OHDA and non-injected (control) sides of the brain. […] FIG. 4B presents the mean and standard error of the mean (SEM) as well as statistical analysis of the results.

6-OHDA injected mice [3] = experiment: 6-OHDA cylinder test (motor performance, contralateral touches); details: 10 mg/kg, FIG. 2B
Experimental: An analysis of the neuroprotective effects of the compound of Formula II on motor performance was performed using the 6-OHDA cylinder test (FIG. 2A) which evaluates spontaneous motor changes associated with dopamine depletion in the striatum of 6-OHDA injected mice. […] Control mice were administered the vehicle control only. […] The data is presented in FIG. 2B as mean and standard error of the mean (SEM). Statistical analyses as compared to baseline mice were performed using the one-way Anova test (*: p<0.05; n.s.: not significant). […] Data is presented as mean and SEM. Statistical analyses were performed using One-way Anova test (*: p<0.05; ***: p<0.001. n.s.: not significant.)

For `CO[C@H]1C[C@@H]2CC[C@@H](C)[C@@](O)(C2)C(=O)C(=O)N2CCCC[C@H]2C(=O)O[C@H]([C@H](C)C[C@H]2C[C@H]3C[C@@H]2C[C@@H]3O)CC(=O)[C@H](C)/C=C(\C)[C@@H](O)[C@@H](OC)C(=O)[C@H](C)C[C@H](C)/C=C/C=C/C=C/1C` [Formula II, C37-[(1R,2S,4R,5S)-5-hyhroxybicyclo[2.2.1]heptane] rapamycin], the “Formula II Concentrations in Mouse Whole Blood” value ([1]; 2 mg/kg IP QD x 3 days, Day 3, 24.0 h, individual animals 7, 8, 9) was 17.6 ng/mL and 59.6 ng/mL and 48.6 ng/mL, the “Formula II Concentrations in Mouse Whole Blood, Mean” value (“Formula II Concentrations … Mean” for short) ([1]; 2 mg/kg IP QD x 3 days, Day 3, 24.0 h, mean) was 41.9 ng/mL and the “concentrations in whole blood over time (in words)” value ([1]; 2 mg/kg or 10 mg/kg IP QD for three days, mice) was “sufficient concentrations in whole blood over time”. For the same compound, the “Formula II Concentrations in Mouse Whole Blood” value ([1]; 10 mg/kg IP QD x 3 days, Day 1, 1.00 h, individual animals 10, 11, 12) was 560 ng/mL and 641 ng/mL and 769 ng/mL, the “Formula II Concentrations … Mean” value ([1]; 10 mg/kg IP QD x 3 days, Day 1, 1.00 h, mean) was 657 ng/mL and the “Formula II Concentrations in Mouse Whole Blood” value ([1]; 10 mg/kg IP QD x 3 days, Day 1, 2.00 h, individual animals 10, 11, 12) was 793 ng/mL. For the same compound, the “Formula II Concentrations in Mouse Whole Blood” value ([1]; 10 mg/kg IP QD x 3 days, Day 1, 6.00 h, individual animals 10, 11, 12) was 1000 ng/mL and 1950 ng/mL and 544 ng/mL, the “Formula II Concentrations … Mean” value ([1]; 10 mg/kg IP QD x 3 days, Day 1, 6.00 h, mean) was 1165 ng/mL and the “Formula II Concentrations in Mouse Whole Blood” value ([1]; 10 mg/kg IP QD x 3 days, Day 1, 24.0 h, individual animals 10, 11, 12) was 222 ng/mL and 181 ng/mL and 210 ng/mL. The “Formula II Concentrations … Mean” value ([1]; 10 mg/kg IP QD x 3 days, Day 1, 24.0 h, mean) was 204 ng/mL, the “Formula II Concentrations in Mouse Whole Blood” value ([1]; 10 mg/kg IP QD x 3 days, Day 2, 1.00 h, individual animals 10, 11, 12) was 3410 ng/mL and 2970 ng/mL and 546 ng/mL and the “Formula II Concentrations … Mean” value ([1]; 10 mg/kg IP QD x 3 days, Day 2, 1.00 h, mean) was 2309 ng/mL. The “Formula II Concentrations in Mouse Whole Blood” value ([1]; 10 mg/kg IP QD x 3 days, Day 2, 2.00 h, individual animals 10, 11, 12) was 3670 ng/mL and 3930 ng/mL and 2370 ng/mL, the “Formula II Concentrations … Mean” value ([1]; 10 mg/kg IP QD x 3 days, Day 2, 2.00 h, mean) was 3323 ng/mL and the “Formula II Concentrations in Mouse Whole Blood” value ([1]; 10 mg/kg IP QD x 3 days, Day 2, 6.00 h, individual animals 10, 11, 12) was 2770 ng/mL and 3390 ng/mL and 609 ng/mL. The “Formula II Concentrations … Mean” value ([1]; 10 mg/kg IP QD x 3 days, Day 2, 6.00 h, mean) was 2256 ng/mL, the “Formula II Concentrations in Mouse Whole Blood” value ([1]; 10 mg/kg IP QD x 3 days, Day 2, 24.0 h, individual animals 10, 11, 12) was 123 ng/mL and 336 ng/mL and 78.0 ng/mL and the “Formula II Concentrations … Mean” value ([1]; 10 mg/kg IP QD x 3 days, Day 2, 24.0 h, mean) was 179 ng/mL. The “Formula II Concentrations in Mouse Whole Blood” value ([1]; 10 mg/kg IP QD x 3 days, Day 3, 1.00 h, individual animals 10, 11, 12) was “AQL and 3420 ng/mL and 987 ng/mL”, the “Formula II Concentrations … Mean” value ([1]; 10 mg/kg IP QD x 3 days, Day 3, 1.00 h, mean (animal 10 AQL)) was 2204 ng/mL and the “Formula II Concentrations in Mouse Whole Blood” value ([1]; 10 mg/kg IP QD x 3 days, Day 3, 2.00 h, individual animals 10, 11, 12) was 5170 ng/mL and 3650 ng/mL and 777 ng/mL. The “Formula II Concentrations … Mean” value ([1]; 10 mg/kg IP QD x 3 days, Day 3, 2.00 h, mean) was 3199 ng/mL, the “Formula II Concentrations in Mouse Whole Blood” value ([1]; 10 mg/kg IP QD x 3 days, Day 3, 6.00 h, individual animals 10, 11, 12) was 3330 ng/mL and 2890 ng/mL and 730 ng/mL and the “Formula II Concentrations … Mean” value ([1]; 10 mg/kg IP QD x 3 days, Day 3, 6.00 h, mean) was 2317 ng/mL. The “Formula II Concentrations in Mouse Whole Blood” value ([1]; 10 mg/kg IP QD x 3 days, Day 3, 24.0 h, individual animals 10, 11, 12) was 223 ng/mL and 323 ng/mL and 124 ng/mL, the “Formula II Concentrations … Mean” value ([1]; 10 mg/kg IP QD x 3 days, Day 3, 24.0 h, mean) was 223 ng/mL and the “6-OHDA-induced neuronal loss (TH-positive somas, SN) compared with vehicle control” value (6-OHDA injected mice [2]; 6-OHDA injected mice, FIG. 4A) was “decreased 6-OHDA-induced neuronal loss as compared to vehicle control”. The “TH+ neuronal loss, p versus vehicle control” value (6-OHDA injected mice [2]; one-way ANOVA, FIG. 4B) was less than 0.01, the “number of touches compared with rapamycin and vehicle control” value (6-OHDA injected mice [3]) was “clearly outperformed rapamycin and the vehicle control” and the “contralateral touches, difference from baseline (one-way Anova)” value (6-OHDA injected mice [3]; three days pre-treatment before 6-OHDA (80 μg)) was “non-significant difference from baseline”.
